For one assay, the target named is IRAK4 (Homo sapiens (Human), UniProt Q9NWZ3). Description: IRAK-4 AlphaScreen biochemical kinase assay. To be noted: 1 nM IRAK4, 1 mM ATP, 3.5 h at RT. In short, it runs like this: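 AlphaScreen read-out: streptavidin beads bind the biotinylated peptide and protein A beads bind the anti-phosphothreonine antibody, so energy transfer reports phosphorylation of the peptide. The kinase is human IRAK-4.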

The test system of another assay is IL-6 in A549 cells. Description: Cell-based IL-6 ELISA assay in IL-1beta stimulated A549 cells. The conditions noted are these: 2 ng/ml human IL-1beta overnight. The protocol: The cell-based assays is based on IL-6 ELISA quantification. Briefly, A549 cells are cultured in DMEM with 10% FBS medium. When cells reach 80% confluence they are trypsin treated and seeded 180 ul/well in 96-well plate at 2.5×10^4 cells/well. Then, 20 ul of compound serial dilutions (starting at 10 uM, 10 points) are added to the cell plate; incubate for 30 min at 37 C and stimulated with 2 ng/ml human IL-1beta 37 C, 5% CO2 overnight. The next day 100 ul of cell supernatant per well are analyzed on a Human IL-6 Quantikine ELISA kit from R&D Systems.
On the technique in general: An ELISA detects its analyte on a solid surface through an enzyme-linked reagent.

Sequence of IRAK4 (Q9NWZ3 whole entry, species assumed): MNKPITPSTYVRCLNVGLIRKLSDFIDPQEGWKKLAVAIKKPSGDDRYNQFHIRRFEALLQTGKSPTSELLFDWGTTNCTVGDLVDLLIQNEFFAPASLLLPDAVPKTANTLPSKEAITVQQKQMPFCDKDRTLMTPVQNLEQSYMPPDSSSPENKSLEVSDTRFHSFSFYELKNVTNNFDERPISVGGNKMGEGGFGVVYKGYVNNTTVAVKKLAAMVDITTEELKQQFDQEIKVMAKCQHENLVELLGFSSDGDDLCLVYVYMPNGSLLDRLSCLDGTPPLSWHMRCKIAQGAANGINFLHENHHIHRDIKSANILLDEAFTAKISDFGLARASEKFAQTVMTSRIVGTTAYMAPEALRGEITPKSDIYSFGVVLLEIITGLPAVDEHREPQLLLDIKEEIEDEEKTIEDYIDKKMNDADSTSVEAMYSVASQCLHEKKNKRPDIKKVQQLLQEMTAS

As to `C[C@H](N)c1cccc(-c2cc(-c3ccccn3)c3cnn(-c4cccc(CO)n4)c3c2)n1` [Example 373, (S)-(6-(6-(6-(1-aminoethyl)pyridin-2-yl)-4-(pyridin-2-yl)-1H-indazol-1-yl)pyridin-2-yl)methanol], at IRAK4, the IC50 (as a rule, the concentration that inhibits the measured activity by half) is < 100 nM. The EC50 (as a rule, the concentration giving half of the maximal effect) with IL-6 in A549 cells was ≤ 1000 nM.
On to `C[C@H](N)c1cccc(-c2cc(-c3nc(C(F)(F)F)co3)c3cnn(-c4cccc(CO)n4)c3c2)n1` [Example 374, (S)-(6-(6-(6-(1-aminoethyl)pyridin-2-yl)-4-(4-(trifluoromethyl)oxazol-2-yl)-1H-indazol-1-yl)pyridin-2-yl)methanol], for which, on IRAK4, the concentration for half-maximal inhibition (IC50) was < 100 nM. The EC50 in the assay on IL-6 in A549 cells was ≤ 1000 nM.
Turning to `Cc1csc(-c2cc(-c3cccc([C@H](C)N)n3)cc3c2cnn3-c2cccc(CO)n2)n1` [Example 375, (S)-(6-(6-(6-(1-aminoethyl)pyridin-2-yl)-4-(4-methylthiazol-2-yl)-1H-indazol-1-yl)pyridin-2-yl)methanol], the half-inhibitory concentration (IC50) against IRAK4 is < 100 nM. Besides, in the assay on IL-6 in A549 cells, the EC50 was ≤ 1000 nM.
In the same order, the values of `C[C@H](N)c1cccc(-c2cc(-c3cnn(C(F)(F)F)c3)c3cnn(-c4cccc(CO)n4)c3c2)n1` [Example 376, (S)-(6-(6-(6-(1-aminoethyl)pyridin-2-yl)-4-(1-(trifluoromethyl)-1H-pyrazol-4-yl)-1H-indazol-1-yl)pyridin-2-yl)methanol] are < 100 nM and ≤ 1000 nM.
For the compound `Cc1nc(-c2cc(-c3cccc([C@H](C)N)n3)cc3c2cnn3-c2cccc(CO)n2)sc1C` [Example 377, (S)-(6-(6-(6-(1-aminoethyl)pyridin-2-yl)-4-(4,5-dimethylthiazol-2-yl)-1H-indazol-1-yl)pyridin-2-yl)methanol], at IRAK4, the half-maximal inhibitory concentration (IC50) was < 100 nM. Besides, in the assay with IL-6 in A549 cells, the EC50 was ≤ 1000 nM.
With `C[C@H](N)c1cccc(-c2cc(-c3nc(C(F)(F)F)cs3)c3cnn(-c4cccc(CO)n4)c3c2)n1` [Example 378, (S)-(6-(6-(6-(1-aminoethyl)pyridin-2-yl)-4-(4-(trifluoromethyl)thiazol-2-yl)-1H-indazol-1-yl)pyridin-2-yl)methanol], the IC50 against IRAK4 is < 100 nM. Moreover, in the assay on IL-6 in A549 cells, the EC50 fell in the range of 1000 to 10000 nM.
With `C[C@H](N)c1cccc(-c2cc(-c3nccs3)c3cnn(-c4cccc(CO)n4)c3c2)n1` [Example 379, (S)-(6-(6-(6-(1-aminoethyl)pyridin-2-yl)-4-(thiazol-2-yl)-1H-indazol-1-yl)pyridin-2-yl)methanol], the IC50 on IRAK4 was < 100 nM. The compound also had an EC50 in the assay on IL-6 in A549 cells of 1000 to 10000 nM.
In the same order, the values of `C[C@H](N)c1cccc(-c2cc(-c3ncc(C(F)(F)F)s3)c3cnn(-c4cccc(CO)n4)c3c2)n1` [Example 380, (S)-(6-(6-(6-(1-aminoethyl)pyridin-2-yl)-4-(5-(trifluoromethyl)thiazol-2-yl)-1H-indazol-1-yl)pyridin-2-yl)methanol] are < 100 nM and 1000 to 10000 nM.
`C[C@H](N)c1cccc(-c2cc(-c3cc[nH]n3)c3cnn(-c4cccc(CO)n4)c3c2)n1` [Example 381, (S)-(6-(6-(6-(1-aminoethyl)pyridin-2-yl)-4-(1H-pyrazol-3-yl)-1H-indazol-1-yl)pyridin-2-yl)methanol]: the 50% inhibitory concentration (IC50) against IRAK4 was < 100 nM. The compound further yielded a half-maximal effective concentration (EC50) in the assay on IL-6 in A549 cells of 1000 to 10000 nM.
On IRAK4, `C[C@H](N)c1cccc(-c2ccc3cnn(-c4cncc(CO)n4)c3c2)n1` [Example 397, (S)-(6-(6-(6-(1-aminoethyl)pyridin-2-yl)-1H-indazol-1-yl)pyrazin-2-yl)methanol] came in with an IC50 of 100 to 1000 nM. For the same compound, in the assay with IL-6 in A549 cells, the EC50 is ≤ 1000 nM.
Take `CC[C@H](N)c1cccc(-c2ccc3cnn(-c4cncc(CO)n4)c3c2)n1` [Example 398, (S)-(6-(6-(6-(1-aminopropyl)pyridin-2-yl)-1H-indazol-1-yl)pyrazin-2-yl)methanol]: on IRAK4, the IC50 was < 100 nM. Also, the 50% effective concentration (EC50) with IL-6 in A549 cells is ≤ 1000 nM.
In the same order, the values of `CCC[C@H](N)c1cccc(-c2ccc3cnn(-c4cncc(CO)n4)c3c2)n1` [Example 399, (S)-(6-(6-(6-(1-aminobutyl)pyridin-2-yl)-1H-indazol-1-yl)pyrazin-2-yl)methanol] are < 100 nM and ≤ 1000 nM.
In the same order, the values of `C[C@H](N)c1ccnc(-c2ccc3cnn(-c4cccc(CO)n4)c3c2)n1` [Example 411, (S)-(6-(6-(4-(1-aminoethyl)pyrimidin-2-yl)-1H-indazol-1-yl)pyridin-2-yl)methanol] are < 100 nM and ≤ 1000 nM.
In the same order, the values of `CCC[C@H](N)c1ccnc(-c2ccc3cnn(-c4cccc(CO)n4)c3c2)n1` [Example 413, (S)-(6-(6-(4-(1-aminobutyl)pyrimidin-2-yl)-1H-indazol-1-yl)pyridin-2-yl)methanol] are < 100 nM and ≤ 1000 nM.
Take `CCC[C@@H](N)c1ccnc(-c2ccc3cnn(-c4cccc(CO)n4)c3c2)n1` [Example 414, (R)-(6-(6-(4-(1-aminobutyl)pyrimidin-2-yl)-1H-indazol-1-yl)pyridin-2-yl)methanol]: at IRAK4, the IC50 is < 100 nM. Moreover, the concentration giving a half-maximal response (EC50) with IL-6 in A549 cells was ≤ 1000 nM.
In the same order, the values of `N[C@H](c1cccc(-c2ccc3cnn(-c4cccc(CO)n4)c3c2)n1)C1CCC1` [Example 422, (S)-(6-(6-(6-(amino(cyclobutyl)methyl)pyridin-2-yl)-1H-indazol-1-yl)pyridin-2-yl)methanol] are < 100 nM and ≤ 1000 nM.
On to `CCC[C@H](N)c1cccc(-c2cc(C3CCOCC3)c3cnn(-c4cccc(CO)n4)c3c2)n1` [Example 425, (S)-(6-(6-(6-(1-aminobutyl)pyridin-2-yl)-4-(tetrahydro-2H-pyran-4-yl)-1H-indazol-1-yl)pyridin-2-yl)methanol], for which the concentration for half-maximal inhibition (IC50) on IRAK4 was < 100 nM. In addition, the EC50 with IL-6 in A549 cells is ≤ 1000 nM.
In the same order, the values of `N[C@@H](CCC(F)(F)F)c1cccc(-c2ccc3cnn(-c4cccc(CO)n4)c3c2)n1` [Example 427, (S)-(6-(6-(6-(1-amino-4,4,4-trifluorobutyl)pyridin-2-yl)-1H-indazol-1-yl)pyridin-2-yl)methanol] are < 100 nM and ≤ 1000 nM.
Turning to `C=C(C)C[C@H](N)c1cccc(-c2ccc3cnn(-c4cccc(CO)n4)c3c2)n1` [Example 436, (S)-(6-(6-(6-(1-amino-3-methylbut-3-en-1-yl)pyridin-2-yl)-1H-indazol-1-yl)pyridin-2-yl)methanol], the IC50 at IRAK4 is < 100 nM. In addition, in the assay on IL-6 in A549 cells, the 50% effective concentration (EC50) is ≤ 1000 nM.
Regarding `CC(F)(F)C[C@H](N)c1cccc(-c2ccc3cnn(-c4cccc(CO)n4)c3c2)n1` [Example 437, (S)-(6-(6-(6-(1-amino-3,3-difluorobutyl)pyridin-2-yl)-1H-indazol-1-yl)pyridin-2-yl)methanol], the IC50 at IRAK4 was < 100 nM. Besides, the half-maximal effective concentration (EC50) with IL-6 in A549 cells was ≤ 1000 nM.
Take `CCOc1cc(-c2cccc([C@@H](N)CC(C)(F)F)n2)cc2c1cnn2-c1cccc(CO)n1` [Example 438, (S)-(6-(6-(6-(1-amino-3,3-difluorobutyl)pyridin-2-yl)-4-ethoxy-1H-indazol-1-yl)pyridin-2-yl)methanol]: the 50% inhibitory concentration (IC50) against IRAK4 was < 100 nM. In addition, the concentration for a half-maximal effect (EC50) with IL-6 in A549 cells is ≤ 1000 nM.
For the compound `CCOc1cc(-c2cccc([C@H](N)c3ccccc3)n2)cc2c1cnn2-c1cccc(CO)n1` [Example 439, (R)-(6-(6-(6-(amino(phenyl)methyl)pyridin-2-yl)-4-ethoxy-1H-indazol-1-yl)pyridin-2-yl)methanol], the IC50 at IRAK4 was < 100 nM. In the assay on IL-6 in A549 cells, the 50% effective concentration (EC50) was ≤ 1000 nM.
Regarding `CCOc1cc(-c2cccc([C@@H](N)[C@@H](F)CC)n2)cc2c1cnn2-c1cccc(CO)n1` [Example 442, (6-(6-(6-((1R,2S)-1-amino-2-fluorobutyl)pyridin-2-yl)-4-ethoxy-1H-indazol-1-yl)pyridin-2-yl)methanol], on IRAK4, the IC50 is < 100 nM. Also, in the assay with IL-6 in A549 cells, the half-maximal effective concentration (EC50) is ≤ 1000 nM.
In the same order, the values of `CCOc1cc(-c2cccc([C@@H](N)[C@H](F)CC)n2)cc2c1cnn2-c1cccc(CO)n1` [Example 443, (6-(6-(6-((1R,2R)-1-amino-2-fluorobutyl)pyridin-2-yl)-4-ethoxy-1H-indazol-1-yl)pyridin-2-yl)methanol] are < 100 nM and ≤ 1000 nM.
Regarding `CCOc1cc(-c2cccc([C@@H](N)[C@H](CC)OC)n2)cc2c1cnn2-c1cccc(CO)n1` [Example 444, (6-(6-(6-((1R,2S)-1-amino-2-methoxybutyl)pyridin-2-yl)-4-ethoxy-1H-indazol-1-yl)pyridin-2-yl)methanol], on IRAK4, the concentration for half-maximal inhibition (IC50) was < 100 nM. The compound also showed an EC50 in the assay with IL-6 in A549 cells of 1000 to 10000 nM.
In the case of `CCOc1cc(-c2cccc([C@@H](N)[C@@H](CC)OC)n2)cc2c1cnn2-c1cccc(CO)n1` [Example 445, (6-(6-(6-((1R,2R)-1-amino-2-methoxybutyl)pyridin-2-yl)-4-ethoxy-1H-indazol-1-yl)pyridin-2-yl)methanol], at IRAK4, the IC50 is < 100 nM. Further, the concentration for a half-maximal effect (EC50) in the assay on IL-6 in A549 cells was ≤ 1000 nM.
With `NC(c1cccc(-c2ccc3cnn(-c4cccc(CO)n4)c3c2)n1)C1COC1` (stereo not shown) [Example 446, (6-(6-(6-(amino(oxetan-3-yl)methyl)pyridin-2-yl)-1H-indazol-1-yl)pyridin-2-yl)methanol], on IRAK4, the IC50 is < 100 nM. The EC50 in the assay on IL-6 in A549 cells is ≤ 1000 nM.
As for `CCOc1cc(-c2cccc(C(N)C3COC3)n2)cc2c1cnn2-c1cccc(CO)n1` (stereo not shown) [Example 447, (6-(6-(6-(amino(oxetan-3-yl)methyl)pyridin-2-yl)-4-ethoxy-1H-indazol-1-yl)pyridin-2-yl)methanol], the IC50 against IRAK4 is < 100 nM. Besides, the EC50 in the assay on IL-6 in A549 cells is ≤ 1000 nM.
On to `CC1(CC(N)c2cccc(-c3ccc4cnn(-c5cccc(CO)n5)c4c3)n2)COC1` (stereo not shown) [Example 448, (6-(6-(6-(1-amino-2-(3-methyloxetan-3-yl)ethyl)pyridin-2-yl)-1H-indazol-1-yl)pyridin-2-yl)methanol], for which, at IRAK4, the concentration for half-maximal inhibition (IC50) was < 100 nM. The same compound registered a 50% effective concentration (EC50) with IL-6 in A549 cells of 1000 to 10000 nM.

The values are drawn from patent US10246456B2, “IRAK4 inhibiting agents” (BIOGEN MA INC., priority 2014, dated 2019).
